Measured values as given in US20040229942A1, “Analeptic and antidepressant combinations” (Cephalon Inc, priority 2003, published 2004).

Experiments:
[1] = system: patients previously diagnosed with MDD (single episode or recurrent); assay: Clinical study: modafinil started together with an SSRI (fluoxetine or paroxetine) in MDD patients, depressive symptom assessment (HAMD-21, HAMD-31, response, remission); settings: human, in vivo
Experimental: Eligible patients were previously diagnosed with MDD (single episode or recurrent), […] had significant fatigue (Fatigue Severity Scale [FSS] score of greater than or equal to 4), and had not taken antidepressant therapy for greater than or equal to 4 weeks. Patients were evaluated at screening, baseline (shown in Table 1), and weeks 1, 2, 3, 4, 5, and 6.
Patients were then started on a combination of an SSRI and modafinil.
Modafinil was initiated at 100 mg/day for 3 days and then titrated to 200 mg/day, depending on response and tolerability. SSRI therapy was either fluoxetine or paroxetine administered at 20 mg/day for 6 weeks.
Depressive symptom changes were analyzed using HAMD-31, each of which were videotaped and rated independently, and HAMD-21 total score evaluations. HAMD-21 total score analyses were also performed to evaluate response and remission rates. Changes in fatigue were assessed using the FSS. A fatigue response was defined as an FSS score of less than 4 at any post-baseline visit. […] Subjective sleepiness was assessed using the Epworth Sleepiness Scale (ESS). […] Symptoms associated with depression, including fatigue, mood, motivation, and concentration, were evaluated using patient-assessed Visual Analogue Scales (VAS).
Continuous variables were analyzed using a paired t-test for normally distributed data or Wilcoxon signed rank test for non-normal data. […]

rats = rats (Touret et al., 1995; Edgar and Seidel, 1997); cited from earlier work
cats = cats (Lin et al., 1992); cited from earlier work
canines = canines (Shelton et al., 1995); cited from earlier work
non-human primates = non-human primates (Hernant et al, 1991); cited from earlier work
[2] = system: major depressive disorder; settings: at 6 weeks; cited from earlier work

SMILES | overall conclusion on adjuvant effect in patients with depression and significant fatigue [1] | wakefulness (rats) | wakefulness (cats) | wakefulness (canines) | wakefulness (non-human primates) | response to antidepressant therapy [2]
NC(=O)C[S+]([O-])C(c1ccccc1)c1ccccc1 (stereo not drawn) [Modafinil, 2-(benzhydrylsulfinyl) acetamide] | rapid-acting and effective adjuvant medication | promotes wakefulness | promotes wakefulness | promotes wakefulness | promotes wakefulness | 
CNCCC(Oc1ccc(C(F)(F)F)cc1)c1ccccc1 (stereo not drawn) [fluoxetine] |  |  |  |  |  | about 50%
